{"source": "paper PMC6272846", "about": "“Synthesis and p38 Inhibitory Activity of Some Novel Substituted N,N′-Diarylurea Derivatives” (Molecules, 2016)", "tested_on": "MAPKAPK2", "assay": "Inhibition of MAPKAPK2 in GFP-MAPKAPk2_BHK cell model (nuclear translocation)", "type": "cell-based", "conditions": "GFP-MAPKAPk2_BHK cells", "experimental": "In order to study p38α inhibition in a cell system, we investigated the ability of all compounds to inhibit the phosphorylation of mitogen-activated protein-kinase-activated protein kinase 2 (MAPKAPK2). Each compound was prepared at […] concentrations (1, 3, 10 and 30 nM, 0.1 and 0.3 μM), and the percentages of inhibition were calculated from the numbers of cells after treatment with the different compounds.\nGFP-MAPKAPk2_BHK cells were cultured in 96-well plates (2.0 × 10^4/100 μL/well) containing 10% heat-inactivated foetal bovine serum (FBS) and 1 mg/mL G418 at 37 °C in humidified air containing 5% CO2 for 18–24 h. The cells were washed with nutrient solution (100 μL/well) and changed to the compound liquid (100 μL/well). Experiments were set up with the control, and the compound was repeated at each concentration in three wells. The cells were cultured in 96-well plates at 37 °C in humidified air containing 5% CO2 for 90 min. The cells were washed with the dye solution (20 μL/well), and the dyed cells were held for 1 hour at room temperature in the dye liquid. Analysis of nuclear translocation and calculation of the ability of the compounds to inhibit nuclear translocation was performed using the IN Cell Analyzer 1000 Nuclear Trafficking Analysis Module System (GE, Madison, WI, USA). The cultured cells were treated with the obtained compounds in […] concentration grads (1, 3, 10 and 30 nM, 0.1 and 0.3 μM). The inhibitory percentage can be calculated using the amounts of cells after the disposition of the different compounds."}
{"smiles": "CC(C)(C)c1cc(NC(=O)Nc2ccccc2OCCN2CCOCC2)n(-c2ccc(S(N)(=O)=O)cc2)n1", "note": "[28i, 4-(3-(tert-Butyl)-5-(3-(2-(2-morpholinoethoxy)phenyl)ureido)-1H-pyrazol-1-yl)benzenesulfonamide]", "values": [{"measurement": "IC50", "setting": "bound given in µM", "result": "> 10", "unit": "µM"}]}
{"smiles": "COc1ccc(-n2nc(C(C)(C)C)cc2NC(=O)Nc2ccccc2Oc2ccc3[nH]ncc3c2)cc1", "note": "[29d, 1-(2-((1H-Indazol-5-yl)oxy)phenyl)-3-(3-(tert-butyl)-1-(4-methoxyphenyl)-1H-pyrazol-5-yl)urea]", "values": [{"measurement": "IC50", "setting": "bound given in µM", "result": "> 10", "unit": "µM"}]}
{"smiles": "CC(C)(C)c1cc(NC(=O)Nc2ccccc2Oc2ccc3[nH]ncc3c2)n(-c2ccc(S(N)(=O)=O)cc2)n1", "note": "[29i, 4-(5-(3-(2-((1H-Indazol-5-yl)oxy)phenyl)ureido)-3-(tert-butyl)-1H-pyrazol-1-yl)benzenesulfonamide]", "values": [{"measurement": "IC50", "setting": "bound given in µM", "result": "> 10", "unit": "µM"}]}
{"smiles": "CC(C)(C)c1cc(NC(=O)Nc2ccccc2OCCN2CCOCC2)n(-c2ccc(Br)cc2)n1", "note": "[28f, 1-(1-(4-Bromophenyl)-3-(tert-butyl)-1H-pyrazol-5-yl)-3-(2-(2-morpholinoethoxy)phenyl)urea]", "values": [{"measurement": "IC50", "setting": "bound given in µM", "result": "> 10", "unit": "µM"}]}
{"smiles": "CC(C)(C)c1cc(NC(=O)Nc2ccccc2OCCN2CCOCC2)n(-c2ccc(F)cc2)n1", "note": "[28g, 1-(3-(tert-Butyl)-1-(4-fluorophenyl)-1H-pyrazol-5-yl)-3-(2-(2-morpholinoethoxy)phenyl)urea]", "values": [{"measurement": "IC50", "setting": "bound given in µM", "result": "> 10", "unit": "µM"}]}
{"smiles": "CC(C)(C)c1cc(NC(=O)Nc2ccccc2OCCN2CCOCC2)n(-c2ccc([N+](=O)[O-])cc2)n1", "note": "[28h, 1-(3-(tert-Butyl)-1-(4-nitrophenyl)-1H-pyrazol-5-yl)-3-(2-(2-morpholinoethoxy)phenyl)urea]", "values": [{"measurement": "IC50", "setting": "bound given in µM", "result": "> 10", "unit": "µM"}]}
{"smiles": "Cc1cccc(-n2nc(C(C)(C)C)cc2NC(=O)Nc2ccccc2OCCN2CCOCC2)c1", "note": "[28c, 1-(3-(tert-Butyl)-1-(m-tolyl)-1H-pyrazol-5-yl)-3-(2-(2-morpholinoethoxy)phenyl)urea]", "values": [{"measurement": "IC50", "setting": "bound given in µM", "result": "> 10", "unit": "µM"}]}
{"smiles": "CC(C)(C)c1cc(NC(=O)Nc2ccccc2Oc2ccc3[nH]ncc3c2)n(-c2ccc(Br)cc2)n1", "note": "[29f, 1-(2-((1H-Indazol-5-yl)oxy)phenyl)-3-(1-(4-bromophenyl)-3-(tert-butyl)-1H-pyrazol-5-yl)urea]", "values": [{"measurement": "IC50", "setting": "bound given in µM", "result": "> 10", "unit": "µM"}]}
{"smiles": "CC(C)(C)c1cc(NC(=O)Nc2ccccc2Oc2ccc3[nH]ncc3c2)n(-c2ccc(Cl)cc2)n1", "note": "[29e, 1-(2-((1H-Indazol-5-yl)oxy)phenyl)-3-(3-(tert-butyl)-1-(4-chlorophenyl)-1H-pyrazol-5-yl)urea]", "values": [{"measurement": "IC50", "setting": "bound given in µM", "result": "> 10", "unit": "µM"}]}
{"smiles": "CC(C)(C)c1cc(NC(=O)Nc2ccccc2Oc2ccc3[nH]ncc3c2)n(-c2ccc(F)cc2)n1", "note": "[29g, 1-(2-((1H-Indazol-5-yl)oxy)phenyl)-3-(3-(tert-butyl)-1-(4-fluorophenyl)-1H-pyrazol-5-yl)urea]", "values": [{"measurement": "IC50", "setting": "bound given in µM", "result": "> 10", "unit": "µM"}]}
{"smiles": "Cc1ccc(-n2nc(C(C)(C)C)cc2NC(=O)Nc2ccc(Oc3ccc4[nH]ncc4c3)c3c2OCC=C3)cc1", "note": "[26a, 1-(5-((1H-Indazol-5-yl)oxy)-2H-chromen-8-yl)-3-(3-(tert-butyl)-1-(p-tolyl)-1H-pyrazol-5-yl)urea]", "values": [{"measurement": "IC50", "result": "0.0607 ± 0.00231", "unit": "µM"}]}
{"smiles": "CC(C)(C)c1cc(NC(=O)NCc2ccccc2OCCN2CCOCC2)n(-c2ccc(S(N)(=O)=O)cc2)n1", "note": "[30c, 4-(3-(tert-Butyl)-5-(3-(2-(2-morpholinoethoxy)benzyl)ureido)-1H-pyrazol-1-yl)benzenesulfonamide]", "values": [{"measurement": "IC50", "setting": "bound given in µM", "result": "> 3", "unit": "µM"}]}
{"smiles": "CC(C)(C)c1cc(NC(=O)Nc2ccccc2OCCN2CCOCC2)n(-c2ccc(Cl)cc2)n1", "note": "[28e, 1-(3-(tert-Butyl)-1-(4-chlorophenyl)-1H-pyrazol-5-yl)-3-(2-(2-morpholinoethoxy)phenyl)urea]", "values": [{"measurement": "IC50", "setting": "bound given in µM", "result": "> 10", "unit": "µM"}]}
{"smiles": "Cc1cccc(-n2nc(C(C)(C)C)cc2NC(=O)Nc2ccccc2Oc2ccc3[nH]ncc3c2)c1", "note": "[29c, 1-(2-((1H-Indazol-5-yl)oxy)phenyl)-3-(3-(tert-butyl)-1-(m-tolyl)-1H-pyrazol-5-yl)urea]", "values": [{"measurement": "IC50", "setting": "bound given in µM", "result": "> 10", "unit": "µM"}]}
{"smiles": "CC(C)(C)c1cc(NC(=O)Nc2ccc(Oc3ccc4[nH]ncc4c3)c3c2OCC=C3)n(-c2ccc(S(N)(=O)=O)cc2)n1", "note": "[26c, 4-(5-(3-(5-((1H-Indazol-5-yl)oxy)-2H-chromen-8-yl)ureido)-3-(tert-butyl)-1H-pyrazol-1-yl)benzenesulfonamide]", "values": [{"measurement": "IC50", "result": "0.2457 ± 0.00209", "unit": "µM"}]}
